From ChEMBL document CHEMBL1201862, “PubChem BioAssay data set” (2004)
Active and inactive are the calls of the source. For most assays here, no stated cut-off is given here; in the data, actives have a measured EC50 and inactives only a lower limit.

Experiments:
[1] = inhibitors of firefly luciferase expression or activity, dose response, H4 neuroglioma cells, luminescence (AID 1990); assay type: functional, cell-based
[2] = test system: Streptococcus sp. 'group A'; assay: growth inhibition of control SK(-) GAS strain, dose response, counter-screen for streptokinase expression inhibitor project, luminescence, kanamycin, BacTiterGlo, confirmation (AID 1900); assay type: functional, organism-based
[3] = Luminescence Cell-Based Dose Response HTS to Identify Inhibitors of 5'UTR Stem-Loop Driven Prion Protein mRNA Translation in H4 Neuroglioblastoma Cells. [Related pubchem assays: 1827 (Project Summary), 1813 (Primary HTS)]; assay type: functional
[4] = inhibitors of SNCA 5'UTR-driven reporter translation, confirmation, H4 neuroglioma cells, luminescence (AID 1988); assay type: functional, cell-based
Streptokinase A = biological target: T1, Streptokinase A (Streptococcus pyogenes serotype M1, UniProt P10520); assay: S. pyogenes streptokinase expression inhibitors, potency, dose response, plasminogen activation absorbance, OD405 (AID 1914); assay type: functional, Streptococcus pyogenes M1 GAS;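 further: secreted streptokinase activity via plasminogen activation per viability signal from cell pellet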
T1 sequence (P10520 whole entry): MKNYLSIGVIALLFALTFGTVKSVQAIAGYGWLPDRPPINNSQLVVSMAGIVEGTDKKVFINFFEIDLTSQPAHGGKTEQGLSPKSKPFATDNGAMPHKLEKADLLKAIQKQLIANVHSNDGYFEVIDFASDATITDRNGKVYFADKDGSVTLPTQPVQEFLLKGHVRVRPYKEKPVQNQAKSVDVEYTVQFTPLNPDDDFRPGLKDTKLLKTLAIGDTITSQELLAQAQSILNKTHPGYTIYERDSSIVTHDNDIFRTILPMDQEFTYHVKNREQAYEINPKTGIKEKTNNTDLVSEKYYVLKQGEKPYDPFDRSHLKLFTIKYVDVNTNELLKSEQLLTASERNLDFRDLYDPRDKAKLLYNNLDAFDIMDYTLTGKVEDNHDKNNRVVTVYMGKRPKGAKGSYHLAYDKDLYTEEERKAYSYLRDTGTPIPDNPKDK

Streptococcus = assay: Group A Streptococcus viability loss, dose response, counter-screen for streptokinase expression inhibitor project, luminescence, BacTiterGlo (AID 1915); assay type: functional, organism-based;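 further: potency for reduction of bacterial viability or growth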
[5] = biological target: T2, Heat shock factor protein 1 (Mus musculus, UniProt P38532); assay: HSF1 potentiators in luciferase reporter cells, confirmation, cell-based, NIH3T3, luminescence, dose retest (AID 435004); assay type: functional;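 further: stress induced by proteasome inhibitor MG132 added 30 min after compound; luciferase reporter driven by HSF1 response element in NIH3T3 cells; actives raise luminescence as potentiators of the MG132 stress response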
T2 sequence (P38532 whole entry): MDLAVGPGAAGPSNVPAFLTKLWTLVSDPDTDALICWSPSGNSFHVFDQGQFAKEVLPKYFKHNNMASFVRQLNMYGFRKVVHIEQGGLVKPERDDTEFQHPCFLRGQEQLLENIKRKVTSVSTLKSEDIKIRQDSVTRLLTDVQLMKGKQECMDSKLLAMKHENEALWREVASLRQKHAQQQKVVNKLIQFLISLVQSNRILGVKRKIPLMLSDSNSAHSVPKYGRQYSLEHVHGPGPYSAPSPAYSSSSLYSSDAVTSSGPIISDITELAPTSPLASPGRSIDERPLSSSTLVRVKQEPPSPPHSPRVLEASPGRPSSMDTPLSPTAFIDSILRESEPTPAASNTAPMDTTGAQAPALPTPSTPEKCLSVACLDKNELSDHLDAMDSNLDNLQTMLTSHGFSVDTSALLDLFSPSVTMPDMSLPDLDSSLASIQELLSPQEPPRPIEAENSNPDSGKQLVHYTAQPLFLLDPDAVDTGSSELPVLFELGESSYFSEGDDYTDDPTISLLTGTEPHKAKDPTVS

INS1 = assay: beta cell apoptosis inhibitors, cytokine rescue, dose response, luminescence, retest (AID 449756); assay type: functional, cell-based; settings: Rattus norvegicus;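 further: cell death triggered by IL-1 beta plus TNF-alpha plus IFN-gamma mixture; protective hits raise ATP signal compared with cytokine alone wells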
[6] = microbe, parasite or virus in culture; assay type: functional; settings: Mycobacterium tuberculosis
[7] = inhibitors of intracellular T. cruzi replication, confirmation, NIH3T3 host cells, beta-gal luminescence (AID 2044); assay type: functional, cell-based;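 further: intracellular parasites grown in NIH/3T3 mouse fibroblasts as host cells; luminescent beta-galactosidase reporter signal from transgenic T. cruzi replicating inside host cells; inhibitors lower the luminescence signal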
[8] = cytotoxicity toward NIH3T3 fibroblasts, dose response, counter-screen, cell-based, ATP luminescence, mouse fibroblasts (AID 2010); assay type: functional;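 further: cells exposed to compound for about 90 hours before reading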

Structure (SMILES) | EC50 [1] | EC50 [2] | EC50 [3] | EC50 [4] | EC50 (Streptokinase A) | EC50 (Streptococcus) | EC50 [5] | AC50 (INS1) | CC50 [6] | EC50 [7] | EC50 [8]
NCCCn1c(C(=O)c2cc(Cl)c(N)c(Cl)c2)c2ccc([N+](=O)[O-])cc2[n+]1[O-] | 5.24 µM (active) | 2.8 µM (active) | > 120 µM (not active) | 2.06 µM (active) | > 150 µM (not active) | 5.08 µM (active) | 46.8 µM (active) | 4.16 µM (active) | – | – | –
Nc1ccc(-c2cn3cccnc3n2)cc1 | – | > 150 µM (not active) | – | – | > 150 µM (not active) | > 150 µM (not active) | – | – | – | – | –
Fc1cccc2sc(Nc3nc4cc5c(cc4s3)OCO5)nc12 | – | > 150 µM (not active) | – | – | > 150 µM (not active) | > 150 µM (not active) | – | – | > 40 µM (active) | – | –
CC(C)(C)c1ccc(S(=O)(=O)N2CCC(c3nc4cc(Cl)ccc4[nH]3)CC2)cc1 | – | 5.2 µM (active) | – | – | 4.13 µM (active) | 45.8 µM (active) | – | – | – | 2.97 µM (active) | > 60 µM (not active)
C/C(N)=C(/C#N)C(=O)CSc1nc2scc(-c3ccccc3)c2c(=O)n1C | – | 1.8 µM (active) | – | – | > 150 µM (not active) | 11.9 µM (active) | – | – | – | – | –
